We go through three compounds from patent US20230119539A1, “TRACELESS LINKERS AND PROTEIN-CONJUGATES THEREOF” (Regeneron Pharmaceuticals, Inc., priority 2019, published 2023).

Broadly, the CLint scaled is the capacity of the preparation to metabolise the compound, expressed as a volume cleared per time. A lower CLint scaled goes with slow turnover. In general, half-life refers to the time needed for the level to fall by half in the phase considered. A low value points to fast loss. The EC50 is the concentration that produces a half-maximal response. A lower EC50 goes with higher potency in that assay. One may read the Solubility as the dissolved amount per volume that the medium holds. A high value points to a readily soluble substance.

Data set [1] is described as follows: Metabolic stability with human liver microsomes. The class given is in vitro ADME. The settings on record: for Percent Remaining (%): Mean; for CLint scaled / half-life: human. Here is the method: The metabolic stability of payload PIII-1 incubated with human liver microsomes was evaluated and the results were shown in the Table 7e below.
(Microsomes from liver hold many membrane-bound enzymes, among them those of drug oxidation.)

Data set [2] concerns the target T1, GR (Homo sapiens, UniProt P04150).
T1 construct: host or cells: HEK293 (HEK293/GRLuc; HEK293/GRLuc/MSR1 additionally transduced with human MSR1)
T1 sequence (P04150 524-758 limits assumed): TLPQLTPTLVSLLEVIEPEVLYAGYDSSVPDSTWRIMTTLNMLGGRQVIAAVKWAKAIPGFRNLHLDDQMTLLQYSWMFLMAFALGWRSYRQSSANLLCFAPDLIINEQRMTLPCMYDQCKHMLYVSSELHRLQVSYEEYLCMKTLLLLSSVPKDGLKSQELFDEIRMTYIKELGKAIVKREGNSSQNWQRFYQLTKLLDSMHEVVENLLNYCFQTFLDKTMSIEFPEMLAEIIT
Nature of the data set: GR luciferase reporter assay in HEK293/GRLuc/MSR1 cells. In kind it is cell-based. The note with it: Table 8b, free payloads; for S/N: HEK293/GRLuc/MSR1; for EC50: HEK293/GRLuc/MSR1, 48 hours. Here is the method:
(§1) Activity of anti-MSR1 ncADCs were tested using an MSR1 ADC steroid responsive luciferase reporter assay. To generate the assay cell line, HEK293 cells were co-transfected with the pBind-GR (Promega, Cat #E158A) and pGL4.35 [Luc2P/9xGAL4UAS/Hygro] (Promega, Cat #E137A) vectors. The pBind-GR vector expresses a fusion protein consisting of the GR ligand binding and the yeast Gal4DNA-binding domain, which binds to the Gal4 upstream activation sequence (UAS) in the luciferase expression vector, that can induce luciferase expression following GR agonist binding. The cells were selected for at least 2 weeks in G418+hygromycin and the resulting cell line is referred to as HEK293/GRLuc. HEK293/GRLuc cells were then transduced with a human MSR1 lentiviral expression vector and 48 hours later cells were sorted for MSR1 positive cells. The resulting cell line is referred to as HEK293/GRLuc/MSR1.
(§2) Three-fold serial dilutions of ncADCs in assay buffer were added to the cells for 48 hours. The last well in the plate served as blank control containing only the assay media and was plotted as a continuation of the 3-fold serial dilution. Luciferase activity was determined using the One-Glo™ reagent (Promega, Cat #E6130). Relative light units (RLUs) were measured on an Envision luminometer (PerkinElmer) and EC50 values were determined using a four-parameter logistic equation over a 10-point dose response curve (GraphPad Prism). The signal to noise (S/N) was determined by taking the ratio of the highest RLU on the dose response curve to the RLU in the untreated wells.
(§3) To test the activity of GR agonist payloads disclosed herein, a cell-based GR responsive luciferase reporter assay was developed as described above.
(§4) Three-fold serial dilutions of free payloads were prepared in 100% DMSO, transferred to fresh assay media, and added to the cells for 48 hours. […] The last well in the plate served as blank control containing only the assay media and 0.2% DMSO (untreated well) and was plotted as a continuation of the 3-fold serial dilution. Luciferase activity was determined using the One-Glo™ reagent (Promega, Cat #E6130). Relative light units (RLUs) were measured on an Envision luminometer (PerkinElmer) and EC50 values were determined using a four-parameter logistic equation over a 10-point dose response curve (GraphPad Prism). The signal to noise (S/N) was determined by taking the ratio of the highest RLU on the dose response curve to the RLU in the untreated wells.
(In general: A reporter such as luciferase makes a cellular process visible.)

Data set [3] has as its target T1, GR. Nature of the data set: GR luciferase reporter assay in HEK293/GRLuc cells. In kind it is cell-based. The settings on record: Table 8b, free payloads; for EC50: 48 hours. Here is the method: as §1, §2, §3, §4
The nature of data set [4]: Solubility of linker-payloads and quenched linker-payloads. The class given is physicochemical. The note with it: quenched linker-payloads, Table 6a. The source says: The quenched linker-payloads were water soluble and used for the pH stability test.
Data set [5] is described as follows: Solubility of quenched linker-payloads. The note with it: Table 3c, linker-payloads quenched with taurine-PEG4-azide or CD-N3.
Data set [6] can be described thus: pH stability of quenched linker-payloads in buffers (LCMS). In kind it is physicochemical. The settings on record: RT. Here is the method: To a solution of compound (payloads or quenched-linker-payloads) in DMSO (0.2-1.0 mg/mL) was added corresponding PBS buffer (V(buffer)/V(DMSO)=5) to give test samples (pH 3, 4, 5, 6, 7.4, and 8.5, or other special pH). The test samples were incubated at RT for at least 3 days and monitored by LCMS (i.e., at 1 hr, 2 hr, 4 hr, 8 hr, and 1 day, 2 day, 3 day, 4 day, 5 day, 6 day, 7 day, 8 day, 9 day, and 21 day time points). Initial concentrations of the samples were 0.2 mg/mL (DMSO/buffer, v/v=1/5). […] The payloads and quenched linker-payloads were mostly stable at pH >5.0, 6.0, 7.4 and 8.5 after 3 days. In more acidic conditions, such as pH 1.0, the payloads or linker-payloads were easily cleaved to release D*-OH.

Where only a bound is given, the exact number is not on record here.

Consider `CCCC1O[C@@H]2C[C@H]3[C@@H]4C[C@H](F)C5=CC(=O)C=C[C@]5(C)[C@@]4(F)[C@@H](O)C[C@]3(C)[C@]2(C(=O)CO)O1` (some centres unmarked) [III], for which the “Percent Remaining (%)” value in data set [1] (0 min) is 100.00%; in data set [1] (5 min), 16.15%; in data set [1] (15 min), 0.75%; in data set [1] (30 min), 0.76%; in data set [1] (45 min) it was 0.14%. In data set [1], this compound yielded an intrinsic clearance (CLint scaled) of 811 mL/min/kg. Besides, in data set [1], the half-life came to 2.14 min. Also, the values for the S/N in data set [2] and in data set [3] were 156.7 and 34.4, respectively. The EC50 in data set [2] is 24.2 pM; in data set [3], 19.7 pM.

As to `CCCC1O[C@@H]2C[C@H]3[C@@H]4C[C@H](F)C5=CC(=O)C=C[C@]5(C)[C@@]4(F)[C@@H](O)C[C@]3(C)[C@]2(C(=O)COCNC(=O)CN)O1` (stereo partly drawn) [PIII-1, 2-Amino-N-({2-[(1S,2S,4R,8S,9S,11S,12R,13S,19S)-12,19-difluoro-11-hydroxy-9,13-dimethyl-16-oxo-6-propyl-5,7-dioxapentacyclo[10.8.0.0^2,9.0^4,8.0^13,18]icosa-14,17-dien-8-yl]-2-oxoethoxy}methyl)acetamide], the “Percent Remaining (%)” value stood at 100.00% in data set [1] (0 min); 59.35% in data set [1] (5 min); 23.58% in data set [1] (15 min); 6.83% in data set [1] (30 min); 2.68% in data set [1] (45 min). In data set [1], this compound showed a CLint scaled of 223 mL/min/kg. In data set [1], this compound yielded a half-life of 7.8 min. Further, the results for the S/N in data set [2] and in data set [3] were 179.3 and 32.1, respectively. Moreover, the EC50 in data set [2] amounted to 54.5 pM; in data set [3], 46.5 pM.

In the case of `CCCC1O[C@@H]2C[C@H]3[C@@H]4CCC5=CC(=O)C=C[C@]5(C)[C@H]4[C@@H](O)C[C@]3(C)[C@]2(C(=O)COCNC(=O)CNC(=O)CCC(=O)N2Cc3ccccc3-c3c(nnn3CC3OC4OC5C(CO)OC(OC6C(CO)OC(OC7C(CO)OC(OC8C(CO)OC(OC9C(CO)OC(OC3C(O)C4O)C(O)C9O)C(O)C8O)C(O)C7O)C(O)C6O)C(O)C5O)-c3ccccc32)O1` (some centres unmarked) [Q2L7-PII-1], the Solubility in data set [4] and in data set [5] was above 1000 µg/mL in each case. Further, the “percentage of the remaining compound” value in data set [6] (DMSO, 1 Day) was 97%; in data set [6] (DMSO, 2 Day), 97%; in data set [6] (DMSO, 3 Day), 97%; in data set [6] (DMSO, 4 Day), 97%; in data set [6] (DMSO, 7 Day) it was 97%; in data set [6] (DMSO, 1 hr) it was 97%. Further, the “percentage of the remaining compound” value is reported as 97% in data set [6] (DMSO, 4 hr); 100% in data set [6] (pH 3.0, 1 Day); 100% in data set [6] (pH 3.0, 2 Day); 96% in data set [6] (pH 3.0, 3 Day); 95% in data set [6] (pH 3.0, 4 Day); 91% in data set [6] (pH 3.0, 7 Day). In addition, the “percentage of the remaining compound” value in data set [6] (pH 3.0, 1 hr) is 100%; in data set [6] (pH 3.0, 4 hr), 100%; in data set [6] (pH 4.0, 1 Day), 100%; in data set [6] (pH 4.0, 2 Day), 100%; in data set [6] (pH 4.0, 3 Day), 100%; in data set [6] (pH 4.0, 4 Day) it was 100%. In addition, the “percentage of the remaining compound” value in data set [6] (pH 4.0, 7 Day) was found to be 100%; in data set [6] (pH 4.0, 1 hr), 100%; in data set [6] (pH 4.0, 4 hr), 100%; in data set [6] (pH 5.0, 1 Day), 100%; in data set [6] (pH 5.0, 2 Day), 100%; in data set [6] (pH 5.0, 3 Day) it was 100%. The “percentage of the remaining compound” value amounted to 100% in data set [6] (pH 5.0, 4 Day); 100% in data set [6] (pH 5.0, 7 Day); 100% in data set [6] (pH 5.0, 1 hr); 100% in data set [6] (pH 5.0, 4 hr); 100% in data set [6] (pH 7.4, 1 Day); 100% in data set [6] (pH 7.4, 2 Day). Also, the “percentage of the remaining compound” value is reported as 100% in data set [6] (pH 7.4, 3 Day); 100% in data set [6] (pH 7.4, 4 Day); 100% in data set [6] (pH 7.4, 7 Day); 100% in data set [6] (pH 7.4, 1 hr); 100% in data set [6] (pH 7.4, 4 hr).
